Experimental data reported in publication PMC11475570, “Impact of Optimized Ku–DNA Binding Inhibitors on the Cellular and In Vivo DNA Damage Response” (Cancers, 2024).

Tests used:
[1] = molecular target: T1, Ku70–Ku80 (Homo sapiens, UniProt P12956+P13010); assay: Microscale thermophoresis (MST); type: binding; settings: labeled Ku 5 nM, 5% DMSO, single-site fit
T1 construct: made in house; host or cells: baculovirus-infected Sf9 cells
Protocol: Ku heterodimer was labeled using the Monolith NT™ Protein Labeling Kit RED-NHS (2nd generation amine reactive, NanoTemper Technologies GmbH, MO-L011, München, Germany), following the manufacturer’s protocol. Ku-DBi 3392 powder was resuspended in 100% DMSO, and the concentration was adjusted to 50 mM after UV absorbance measurement (absorbance at 417 nm with an extension coefficient equal to 15.2 mM^−1 cm^−1). The ligand stock solution was sonicated in an ultrasonic bath before preparations of the dilution series. The MST and Differential Scanning Fluorometry (DSF) assays contain 5% DMSO to fit the DMSO concentration at the highest ligand concentration (200 µM). The labeled protein (5 nM) was incubated with ligand 3392 ranging from 98 nM to 200 µM in a 12-point 1:1 dilution series. Protein–ligand solutions were incubated for 30 min at room temperature before MST measurements, which were performed in triplicate. Proteins were transferred to capillaries (Monolith NT. Automated Premium Capillary Chips), and binding was analyzed with a Monolith NT. Automated pico-RED device using MO. Control Software with nano-red excitation, LED light adjusted to 20% excitation power, and infrared laser (MST power) set to medium. The dissociation constants (KD) were determined with MO. […]

[2] = tested on: H460 cells; assay: 3392 and bleomycin combination, CCK-8, SynergyFinder; type: cell-based, Human
Protocol: Cell metabolism/viability was assessed using a mitochondrial metabolism assay (CCK-8) kit (Cell Counting Kit-8, Cat: CK04, Dojindo Laboratories, Rockville, MD, USA) as previously described. Briefly, cells were seeded at a density of 3 × 10^3 cells per well in 96-well plates and allowed to adhere and stretch for 18–24 h prior to treatment. Cells were pre-treated with Ku-DBi for 24 h before bleomycin treatments. Subsequently, cells were incubated for an additional 48 h at 37 °C after which CCK-8 assay was performed. The absorbance of the formed formazan product in each well was measured at 450 nm and compared to vehicle-treated controls to determine percent cell viability. The results represent the average and SEM of triplicate determinations.

[3] = tested on: H460 NSCLC cells; assay: Cellular uptake by HPLC; type: in vitro ADME, Human; settings: H460, 10 µM
Protocol: Cellular uptake was evaluated in two NSCLC cell lines, H460 and A549. Cells were seeded into 6-well plates at a density of 1 × 10^6 cells per well and cultured as monolayers at 37 °C and 5% CO2 for 18–24 h. Ku-DBis were added to the media at a concentration of 10 µM and incubation continued for the times indicated. Media were removed, cells were washed 3 times with PBS, 1 mL of methanol was added to each well, and cells were agitated overnight at 4 °C. The methanol was collected, and wells were washed with an additional 1 mL of methanol that was then pooled with the original. The methanol extracts were then dried under vacuum, resuspended in methanol, and analyzed by HPLC using a 250 × 4.6 and 5 μm C-18 reverse phase column with 1% TFA mobile phase in acetonitrile (ACN) gradient elution. Absorption was monitored at 425 nm, HPLC peaks were quantified using a standard curve, and picomoles of compound per million cells was calculated.

[4] = tested on: A549 cells; assay: γH2AX single-agent DNA damage (Western blot, immunofluorescence); type: cell-based, Human; settings: Supplemental Figure S6
Text: Supplementary Figure S6. GL-3392 single agent effect on DNA damage in NSCLC.
(A) Western blot analysis from A549 cells nuclear extracts. (B) Densitometric analysis of bands from western blot immunodetection. The original membranes can be found in File S1 (Appendix for Supplementary Figure S6A). (C) γH2AX expression levels dete rmined by Immunofluorescence. IF staining of DAPI nuclear staining (blue) and γH2AX (pS139) (red). Scale bars: 10µm. (D) Quantitation of integrated fluorescence intensity of γH2AX foci represented as the median of 300 nuclei per field. ns: not significant, ****p <0.0001 as calculated by one-way ANOVA with Dunnett’s multiple comparisons test. […]

[5] = tested on: A549 cells; assay: Clonogenic survival in combination with IR; type: cell-based, Human; settings: A549, 2 Gy
Protocol: (§1) NSCLC cells were seeded at 2 × 10^5 cells per well into 24-well plates and grown as monolayers at 37 °C and 5% CO2 in media one day before Ku-DBi or vehicle treatments. After 2 h, cells were placed on ice for 10 min and kept on ice during irradiation with either 2 or 5 Gy of 160 kVp X-rays using a Precision X-ray machine (North Branford, CT, USA) at a dose rate of 0.687 Gy/min. Radiation dosimetry measurements were performed using a Farmer-type ionization chamber (PTW Model N30013, Freiburg, Germany) in conjunction with a Keithley electrometer (Model K602, Cleveland, OH, USA). After irradiation, cells were incubated for 1 h at 37 °C, trypsinized, replated in 100 mm dishes, and incubated at 37 °C in 5% CO2. After 11 days, cells were carefully washed in PBS before fixing and staining in 0.5% crystal violet (Cat: C581-100, Fisher Scientific, Hampton, NH, USA) with 6% glutaraldehyde (Glutaraldehyde solution, 25%. Cat: O2957-1, Fisher Scientific) in PBS for 1 h at RT. The staining solution was removed, and cells were washed with water and air-dried. For clonogenic survival analysis, colonies containing more than 50 cells were manually counted and normalized to vehicle control conditions to determine surviving fractions.

[6] = tested on: H23 cells; assay: Clonogenic survival in combination with IR; type: cell-based, Human
Protocol: as §1

[7] = tested on: Ku wild-type MEFs; assay: Bleomycin sensitization, CCK-8; type: cell-based; settings: 20 μM 3392 for 24 h, then bleomycin 48 h
Protocol: (§2) page 20: Supplementary Figure S4. Ku-DBi 3392 sensitivity to bleomycin in wild-type (WT) and Ku 80-null MEFs cells. MEF cells were pre-treated with vehicle or 20 μM 3392 for 24 h and then increasing concentrations of bleomycin for 48 h after which cell viability was determined by CCK-8. Data are presented as the mean and SEM of triplicate determinations. (1 picture or pasted object on this page, not shown here)

[8] = tested on: Ku80-null MEF; assay: Bleomycin sensitization, CCK-8; type: cell-based; settings: 20 μM 3392 for 24 h, then bleomycin 48 h
Protocol: as §2

T1 sequence (P12956 whole entry): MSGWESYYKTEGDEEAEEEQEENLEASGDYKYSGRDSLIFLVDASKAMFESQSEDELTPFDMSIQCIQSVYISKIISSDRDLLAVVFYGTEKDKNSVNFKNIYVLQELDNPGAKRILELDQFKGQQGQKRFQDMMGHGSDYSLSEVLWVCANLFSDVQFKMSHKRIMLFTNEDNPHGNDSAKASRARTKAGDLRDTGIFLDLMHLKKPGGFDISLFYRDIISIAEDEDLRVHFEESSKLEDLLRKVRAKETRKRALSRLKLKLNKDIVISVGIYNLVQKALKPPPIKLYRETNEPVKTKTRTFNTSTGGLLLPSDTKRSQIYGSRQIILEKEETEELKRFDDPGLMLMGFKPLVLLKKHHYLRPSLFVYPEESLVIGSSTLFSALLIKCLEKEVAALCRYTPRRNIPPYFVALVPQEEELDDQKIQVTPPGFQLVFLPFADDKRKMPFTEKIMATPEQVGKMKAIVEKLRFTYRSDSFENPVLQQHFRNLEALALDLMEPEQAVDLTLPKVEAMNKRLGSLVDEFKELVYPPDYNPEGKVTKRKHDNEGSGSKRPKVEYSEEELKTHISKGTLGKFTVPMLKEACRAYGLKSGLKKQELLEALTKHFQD
T1 sequence (P13010 whole entry): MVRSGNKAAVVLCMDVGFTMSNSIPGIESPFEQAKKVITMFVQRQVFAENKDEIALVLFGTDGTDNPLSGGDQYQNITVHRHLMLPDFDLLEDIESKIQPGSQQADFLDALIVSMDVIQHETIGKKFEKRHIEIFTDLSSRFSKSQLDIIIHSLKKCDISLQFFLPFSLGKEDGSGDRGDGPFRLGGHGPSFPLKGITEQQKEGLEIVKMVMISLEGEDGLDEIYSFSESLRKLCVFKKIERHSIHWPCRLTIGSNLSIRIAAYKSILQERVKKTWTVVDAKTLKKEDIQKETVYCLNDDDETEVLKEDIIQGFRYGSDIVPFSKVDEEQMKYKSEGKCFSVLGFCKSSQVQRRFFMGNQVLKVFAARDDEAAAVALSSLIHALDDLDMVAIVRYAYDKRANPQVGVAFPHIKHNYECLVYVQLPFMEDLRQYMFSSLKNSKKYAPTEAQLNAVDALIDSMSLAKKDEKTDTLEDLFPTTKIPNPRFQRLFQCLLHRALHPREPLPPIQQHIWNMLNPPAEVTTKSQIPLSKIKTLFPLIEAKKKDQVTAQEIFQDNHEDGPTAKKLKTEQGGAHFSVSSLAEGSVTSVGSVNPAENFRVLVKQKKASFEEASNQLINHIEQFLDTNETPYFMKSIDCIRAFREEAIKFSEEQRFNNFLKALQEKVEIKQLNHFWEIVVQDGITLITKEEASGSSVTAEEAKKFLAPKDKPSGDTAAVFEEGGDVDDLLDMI

Kd [1]: 2.1 ± 0.3 µM
Uptake time course, initial rate and steady-state uptake [3]: higher cellular levels than 3395
Cellular uptake, fold more efficient than methoxy-derivatives 3395 and 3649 ([3]; media with 10% FBS): ~ 3 fold
SMILES: COc1ccc(-c2ccc(/C=C3\C(=O)N(c4cccc(C(=O)O)c4)c4ccccc43)o2)cc1C(=O)Nc1cccc(OC(F)(F)F)c1 [GL-3392]
Type of interaction with bleomycin (HSA and Bliss models) ([2]; H460, 3392 combined with bleomycin): additive interaction
inhibition at 5 µM ([2]; Homo sapiens, NCI-H460, H460, bleomycin 0 μM, GL-3392 5 μM, read-out: Response matrix for inhibition): 34%
inhibition at 10 µM ([2]; Homo sapiens, NCI-H460, H460, bleomycin 0 μM, GL-3392 10 μM, read-out: Response matrix for inhibition): 78.9%
inhibition at 15 µM ([2]; Homo sapiens, NCI-H460, H460, bleomycin 0 μM, GL-3392 15 μM, read-out: Response matrix for inhibition): 79.8%
Induction of direct DNA damage, single agent [4]: cannot be attributed to induction of direct DNA damage
Sensitivity in combination with IR, clonogenic survival [5]: increased sensitivity when combined with a 2 Gy radiation dose
Sensitivity in combination with IR, clonogenic survival ([6]; ATM-null H23, 2 Gy): minimal, statistically insignificant effect
Sensitivity in combination with IR, clonogenic survival ([6]; ATM-null H23, 5 Gy): significantly sensitized
Ku-DBi-dependent change in sensitivity to bleomycin [7]: increases in the sensitivity to bleomycin were only observed in Ku wild-type cells
Ku-DBi-dependent change in sensitivity to bleomycin [8]: did not increase sensitivity
